Read-outs that look alike come from different tables or passages of the source.
How the values were obtained:
[1] = tested on: cellular dehydrogenase activity; conditions: for MTT (composite Z-score): normalized score vs mock-treated (DMSO) wells
[2] = tested on: cytochrome c; format: cell-based, mouse; conditions: for cyt c (composite Z-score): normalized score vs mock-treated (DMSO) wells
[3] = tested on: mtOXPHOS transcripts; format: cell-based, mouse; conditions: for mitoOX (composite Z-score): normalized score vs mock-treated (DMSO) wells
[4] = tested on: OXPHOS gene expression; format: cell-based, mouse; conditions: for GE-HTS (composite Z-score): normalized score vs mock-treated (DMSO) wells
[5] = tested on: C2C12 myotubes; conditions: for Viability (composite Z-score): normalized score vs mock-treated (DMSO) wells
[6] = tested on: reactive oxygen species; format: cell-based, mouse; conditions: for ROS (composite Z-score): normalized score vs mock-treated (DMSO) wells
[7] = tested on: mitochondrial membrane potential; format: cell-based, mouse; conditions: for ΔΨm (composite Z-score): normalized score vs mock-treated (DMSO) wells
[8] = tested on: nuOXPHOS transcripts; format: cell-based, mouse; conditions: for nucOX (composite Z-score): normalized score vs mock-treated (DMSO) wells
[9] = normalized composite Z-score vs mock-treated (DMSO) wells, Conc 20 μM
[10] = composite Z-score vs DMSO, Conc 20 μM
[11] = Table 4, C2C12 myotubes, 48 h, composite Z-score
[12] = composite Z-score vs mock-treated (DMSO) wells, Conc 20 μM
[13] = 20 μM, composite Z-score vs DMSO

SMILES	MTT [1, 10]	cyt c [2, 10]	mitoOX [3, 10]	GE-HTS [4, 10]	Viability [5, 10]	ROS [6, 10]	nucOX [8, 10]	MTT (composite Z-score) ([1]; Conc 20 μM)	cyt c (composite Z-score) ([2]; Conc 20 μM)	mitoOX (composite Z-score) ([3]; Conc 20 μM)	GE-HTS (composite Z-score) ([4]; Conc 20 μM)	Viability (composite Z-score) ([5]; Conc 20 μM)	ROS (composite Z-score) ([6]; Conc 20 μM)	ΔΨm (composite Z-score) ([7]; Conc 20 μM)	nucOX (composite Z-score) ([8]; Conc 20 μM)	further results
CC1(C)C2CC(=O)[C@]3(C)C(CC[C@@]4(C)[C@H](c5ccoc5)OC(=O)C5OC543)[C@@]2(C)[C@@H](O)C[C@H]1O (stereo partly shown) [1,3-dideacetyl-7-deacetoxy-7-oxokhivorin]																MTT [1, 9]: −1.399; cyt c [2, 9]: 0.226; mitoOX [3, 9]: −0.497; GE-HTS [4, 9]: −0.665; Viability [5, 9]: 0.190; ROS [6, 9]: 1.267; ΔΨm [7, 9]: 1.329; nucOX [8, 9]: −0.716
CC(=O)O[C@@H]1C[C@H]2C(C)(C)[C@H](O)C[C@H](O)[C@]2(C)[C@H]2CC[C@@]3(C)[C@H](c4ccoc4)OC(=O)[C@H]4O[C@]43[C@@]21C [1,3-dideacetylkhivorin]	−0.622	0.887	−1.275	−0.693	0.507	0.963	−0.349									ΔΨm [7, 10]: 0.051
Cc1cc(O)c2c(c1O)C(=O)c1c(O)cc(C)c(O)c1C2=O [1,4,5,8-tetrahydroxy-2,6-dimethylanthroquinone, reference compound]	−0.344	0.005	−0.739	−1.123	−0.853	0.772	−1.178									MTT [1, 11]: −0.344; Viability [5, 11]: −0.853; ROS [6, 11]: 0.772; ΔΨm ([7]; Table 4, C2C12 myotubes, 48 h, JC-1, composite Z-score): −0.662; ΔΨm [7, 10]: −0.662
CC(=O)O[C@@H]1CC(=O)[C@@]2(C)C(CC(=O)[C@]3(C)C2CC[C@@]2(C)[C@H](c4ccoc4)OC(=O)C4OC423)C1(C)C (stereo partly shown) [1,7-dideacetoxy-1,7-dioxokhivorin]																MTT [1, 12]: −0.142; cyt c [2, 12]: 0.539; mitoOX [3, 12]: −0.355; GE-HTS [4, 12]: −0.558; Viability [5, 12]: 0.042; ROS [6, 12]: 0.352; ΔΨm [7, 12]: −0.535; nucOX [8, 12]: −0.585
CC1(C)C2C[C@@H](O)[C@]3(C)C(CC[C@@]4(C)[C@H](c5ccoc5)OC(=O)C5OC543)[C@@]2(C)C(=O)C[C@H]1O (stereo partly shown) [1-deacetoxy-1-oxo-3,7-dideacetylkhivorin]								−1.776	−0.411	−0.020	−0.525	−0.413	0.626	−0.321	−0.704	
CC1(C)[C@H]2CC[C@@]1(C)C(=O)C2 [1r-camphor]																MTT [1, 13]: −0.402; cyt c [2, 13]: 0.372; mitoOX [3, 13]: 0.023; GE-HTS [4, 13]: 0.073; Viability [5, 13]: −0.744; ROS [6, 13]: 0.042; ΔΨm [7, 13]: −0.794; nucOX [8, 13]: 0.107
COc1ccc2c(c1OC)C(=O)O[C@@H]2[C@H]1c2cc3c(cc2CCN1C)OCO3 [1s,9r-hydrastine]	−0.539	0.359	−0.341	−0.152	0.650	−0.029	−0.041									ΔΨm [7]: −0.849
CCOc1ccc(C(=O)c2ccc(O)c(O)c2O)cc1 [2,3,4-trihydroxy-4′-ethoxybenzophenone]								−2.368	0.440	−0.478	−0.823	−0.413	0.052	−1.185	−0.896	
COc1ccc(C(=O)c2ccc(O)cc2)c(O)c1O [2,3,4′-trihydroxy-4-methoxybenzophenone]																MTT [1, 9]: −0.475; cyt c [2, 9]: 0.378; mitoOX [3, 9]: −1.476; GE-HTS [4, 9]: −1.557; Viability [5, 9]: −0.403; ROS [6, 9]: −0.472; ΔΨm [7, 9]: −1.356; nucOX [8, 9]: −1.472
CC(=O)O[C@@H]1C[C@H]2C(C)(C)CCC(=O)[C@]2(C)[C@H]2CC[C@@]3(C)[C@H](c4ccoc4)OC(=O)[C@H]4O[C@]43[C@@]21C [2,3-dihydroisogedunin]								−1.287	0.184	−0.449	−0.471	0.804	0.780	0.221	−0.444	
Oc1nc2cc(Cl)c(Cl)cc2nc1O [2,3-dihydroxy-6,7-dichloroquinoxaline]								−1.458	0.279	−0.565	−0.724	−0.077	0.085	−1.689	−0.712	
COC1=CC(=O)C(C(=O)c2ccccc2)=CC1=O [2-benzoyl-5-methoxybenzoquinone]	−1.489	0.206	−0.985	−0.699	−0.284	−0.542	−0.511									ΔΨm [7, 10]: −0.229

Reference: patent US20090143279A1 (priority 2007, published 2009)
